This passage reports IC50 results from patent US9199984B2, “Inhibition of enzymes” (CHIESI FARMACEUTICI S.p.A., priority 2012, dated 2015).

Some results are limits rather than exact numbers.

In this assay the target is T1, human neutrophil elastase (HNE) (Homo sapiens, UniProt P08246).
T1 construct: purchased Sigma E8140
T1 sequence (P08246 30-247 limits assumed): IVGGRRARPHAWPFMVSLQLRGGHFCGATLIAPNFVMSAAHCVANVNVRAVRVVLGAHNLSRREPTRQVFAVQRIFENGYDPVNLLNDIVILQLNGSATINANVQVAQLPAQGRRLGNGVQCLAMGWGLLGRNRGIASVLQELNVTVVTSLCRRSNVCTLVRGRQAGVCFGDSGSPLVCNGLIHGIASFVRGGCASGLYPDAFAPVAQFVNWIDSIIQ
The assay is described as follows: HNE enzyme activity assay. In kind it is biochemical. Conditions: human leukocyte elastase, substrate MeOSuc-Ala-Ala-Pro-Val-AMC 100 μM, 25° C. for 30 minutes, fluorescence; read-out: HNE inhibition. The procedure:
Compounds of the present invention were tested for potency in a human neutrophil elastase (HNE) enzyme activity assay.
Assays were performed in 96-well plates in a total assay volume of 100 μl. The final concentration of elastase enzyme (human leukocyte elastase, Sigma E8140) was 0.0036 units/well […]. The peptide substrate (MeOSuc-Ala-Ala-Pro-Val-AMC, Calbiochem #324740) was used at a final concentration of 100 μM. The final concentration of DMSO was 1% in the assay buffer (0.05M Tris.HCl, 0.1M NaCl, 0.1M CaCl2, 0.0005% brij-35, pH 7.5). The enzymatic reaction was started by addition of the enzyme and incubated at 25° C. for 30 minutes. After incubation, the reaction was stopped by addition of soybean trypsin inhibitor (Sigma T9003) at a final concentration of 50 μg/well. Fluorescence was measured using a Molecular Devices fluorescence plate reader using 380 nm excitation and 460 nm emission wavelengths.
A dose response to each compound was performed and the effect of compound in each experiment was expressed as a percentage inhibition of the control enzyme fluorescence. Dose response curves were plotted and compound potency (IC50) was determined. Compounds were tested in at least two separate experiments.
As for `Cc1c(-c2ccnn2-c2ccc(C#N)cc2)cn2nc(N)nc2c1-c1cccc(C(F)(F)F)c1` [Example 1, 4-{5-[2-Amino-7-methyl-8-(3-trifluoromethyl-phenyl)-[1,2,4]triazolo[1,5-a]pyridin-6-yl]-pyrazol-1-yl}-benzonitrile], the IC50 lay within 20 to 100 nM.

For the compound `Cc1c(-c2ccnn2-c2ccc(C#N)cc2)cn2cc(NC(=O)C(F)(F)F)nc2c1-c1cccc(C(F)(F)F)c1` [Example 2], the IC50 is 100 to 500 nM.

`Cc1c(-c2ccnn2-c2ccc(C#N)cc2)cn2ncnc2c1-c1cccc(C(F)(F)F)c1` [Example 3, 4-{5-[7-Methyl-8-(3-trifluoromethyl-phenyl)-[1,2,4]triazolo[1,5-a]pyridin-6-yl]-pyrazol-1-yl}-benzonitrile]: the IC50 is below 20 nM.

As to `Cc1nc2c(-c3cccc(C(F)(F)F)c3)c(C)c(-c3ccnn3-c3ccc(C#N)cc3)cn2n1` [Example 4, 4-{5-[2,7-Dimethyl-8-(3-trifluoromethyl-phenyl)-[1,2,4]triazolo[1,5-a]pyridin-6-yl]-pyrazol-1-yl}-benzonitrile], the IC50 was above 500 nM.

Consider `Cc1cn2cc(-c3ccnn3-c3ccc(C#N)cc3)c(C)c(-c3cccc(C(F)(F)F)c3)c2n1` [Example 5, 4-{5-[2,7-Dimethyl-8-(3-trifluoromethyl-phenyl)-imidazo[1,2-a]pyridin-6-yl]-pyrazol-1-yl}-benzonitrile], for which the IC50 is above 500 nM.

For the compound `Cc1c(-c2ccnn2-c2ccc(C#N)cc2)cn2ccnc2c1-c1cccc(C(F)(F)F)c1` [Example 6, 4-{5-[7-Methyl-8-(3-trifluoromethyl-phenyl)-imidazo[1,2-a]pyridin-6-yl]-pyrazol-1-yl}-benzonitrile], the IC50 was 20 to 100 nM.

Regarding `Cc1c(-c2ccnn2-c2ccc(C#N)cc2)cn2nc(Nc3ccc(S(C)(=O)=O)cc3)nc2c1-c1cccc(C(F)(F)F)c1` [Example 7, 4-{5-[2-(4-Methanesulfonyl-phenylamino)-7-methyl-8-(3-trifluoromethyl-phenyl)-[1,2,4]triazolo[1,5-a]pyridin-6-yl]-pyrazol-1-yl}-benzonitrile], the IC50 was below 20 nM.

Consider `Cc1c(-c2ccnn2-c2ccc(C#N)cc2)cn2nc(Cc3ccc(S(C)(=O)=O)cc3)nc2c1-c1cccc(C(F)(F)F)c1` [Example 8, 4-{5-[2-(4-Methanesulfonyl-benzyl)-7-methyl-8-(3-trifluoromethyl-phenyl)-[1,2,4]triazolo[1,5-a]pyridin-6-yl]-pyrazol-1-yl}-benzonitrile], for which the IC50 fell in the range of 100 to 500 nM.

As for `Cc1c(-c2ccnn2-c2ccc(C#N)cc2)cn2c(=O)[nH]nc2c1-c1cccc(C(F)(F)F)c1` [Example 9, 4-{5-[7-Methyl-3-oxo-8-(3-trifluoromethyl-phenyl)-2,3-dihydro-[1,2,4]triazolo[4,3-a]pyridin-6-yl]-pyrazol-1-yl}-benzonitrile], the IC50 was below 20 nM.

For `Cc1c(-c2ccnn2-c2ccc(C#N)cc2)cn2c(=O)n(Cc3ccc(S(C)(=O)=O)cc3)nc2c1-c1cccc(C(F)(F)F)c1` [Example 10, 4-{5-[2-(4-Methanesulfonyl-benzyl)-7-methyl-3-oxo-8-(3-trifluoromethyl-phenyl)-2,3-dihydro-[1,2,4]triazolo[4,3-a]pyridin-6-yl]-pyrazol-1-yl}-benzonitrile], the IC50 was in the range of 100 to 500 nM.

Regarding `Cc1c(-c2ccnn2-c2ccc(C#N)cc2)cn2c(=O)n(CC(=O)N(C)C)nc2c1-c1cccc(C(F)(F)F)c1` [Example 11, 2-[6-[2-(4-Cyano-phenyl)-2H-pyrazol-3-yl]-7-methyl-3-oxo-8-(3-trifluoromethyl-phenyl)-[1,2,4]triazolo[4,3-a]pyridin-2-yl]-N,N-dimethyl-acetamide], the IC50 was above 500 nM.

For the compound `CNC(=O)Cn1nc2c(-c3cccc(C(F)(F)F)c3)c(C)c(-c3ccnn3-c3ccc(C#N)cc3)cn2c1=O` [Example 12, 2-[6-[2-(4-Cyano-phenyl)-2H-pyrazol-3-yl]-7-methyl-3-oxo-8-(3-trifluoromethyl-phenyl)-[1,2,4]triazolo[4,3-a]pyridin-2-yl]-N-methyl-acetamide], the IC50 lay within 100 to 500 nM.

Take `Cc1c(-c2ccnn2-c2ccc(C#N)cc2)cn2c(=O)n(CCCS(C)(=O)=O)nc2c1-c1cccc(C(F)(F)F)c1` [Example 13, 4-{5-[2-(3-Methanesulfonyl-propyl)-7-methyl-3-oxo-8-(3-trifluoromethyl-phenyl)-2,3-dihydro-[1,2,4]triazolo[4,3-a]pyridin-6-yl]-pyrazol-1-yl}-benzonitrile]: the IC50 lay in the range of 100 to 500 nM.

For `Cc1c(-c2ccnn2-c2ccc(C#N)cc2)cn2nc(NC(=O)CN(C)C)nc2c1-c1cccc(C(F)(F)F)c1` [Example 14, N-[6-[2-(4-Cyano-phenyl)-2H-pyrazol-3-yl]-7-methyl-8-(3-trifluoromethyl-phenyl)-[1,2,4]triazolo[1,5-a]pyridin-2-yl]-2-dimethylamino-acetamide], the IC50 was below 20 nM.

With `Cc1c(-c2ccnn2-c2ccc(C#N)cc2)cn2nc(NC(=O)C[N+](C)(C)C)nc2c1-c1cccc(C(F)(F)F)c1` [Example 15, {[6-[2-(4-Cyano-phenyl)-2H-pyrazol-3-yl]-7-methyl-8-(3-trifluoromethyl-phenyl)-[1,2,4]triazolo[1,5-a]pyridin-2-ylcarbamoyl]-methyl}-trimethyl-ammonium bromide], the IC50 lay in the range of 20 to 100 nM.

Consider `Cc1c(-c2ccnn2-c2ccc(C#N)cc2)cn2nc(NC(=O)CCCN(C)C)nc2c1-c1cccc(C(F)(F)F)c1` [Example 16, N-[6-[2-(4-Cyano-phenyl)-2H-pyrazol-3-yl]-7-methyl-8-(3-trifluoromethyl-phenyl)-[1,2,4]triazolo[1,5-a]pyridin-2-yl]-4-dimethylamino-butyramide], for which the IC50 was below 20 nM.

Regarding `Cc1c(-c2ccnn2-c2ccc(C#N)cc2)cn2nc(NC(=O)CCC[N+](C)(C)C)nc2c1-c1cccc(C(F)(F)F)c1` [Example 17, {3-[6-[2-(4-Cyano-phenyl)-2H-pyrazol-3-yl]-7-methyl-8-(3-trifluoromethyl-phenyl)-[1,2,4]triazolo[1,5-a]pyridin-2-ylcarbamoyl]-propyl}-trimethyl-ammonium bromide], the IC50 was below 20 nM.

Consider `Cc1c(-c2ccnn2-c2ccc(C#N)cc2)cn2nc(NC(=O)CN3CCN(C)CC3)nc2c1-c1cccc(C(F)(F)F)c1` [Example 18, N-[6-[2-(4-Cyano-phenyl)-2H-pyrazol-3-yl]-7-methyl-8-(3-trifluoromethyl-phenyl)-[1,2,4]triazolo[1,5-a]pyridin-2-yl]-2-(4-methyl-piperazin-1-yl)-acetamide], for which the IC50 was below 20 nM.

Regarding `Cc1c(-c2ccnn2-c2ccc(C#N)cc2)cn2nc(NC(=O)CN3CC[N+](C)(C)CC3)nc2c1-c1cccc(C(F)(F)F)c1` [Example 19, 4-{[6-[2-(4-Cyano-phenyl)-2H-pyrazol-3-yl]-7-methyl-8-(3-trifluoromethyl-phenyl)-[1,2,4]triazolo[1,5-a]pyridin-2-ylcarbamoyl]-methyl}-1,1-dimethyl-piperazin-1-ium iodide], the IC50 is below 20 nM.

For the compound `Cc1c(-c2ccnn2-c2ccc(C#N)cc2)cn2nc(NC(=O)CN3CCOCC3)nc2c1-c1cccc(C(F)(F)F)c1` [Example 20, N-[6-[2-(4-Cyano-phenyl)-2H-pyrazol-3-yl]-7-methyl-8-(3-trifluoromethyl-phenyl)-[1,2,4]triazolo[1,5-a]pyridin-2-yl]-2-morpholin-4-yl-acetamide], the IC50 was below 20 nM.

As to `Cc1c(-c2ccnn2-c2ccc(C#N)cc2)cn2nc(NC(=O)CN3CCS(=O)(=O)CC3)nc2c1-c1cccc(C(F)(F)F)c1` [Example 21, N-[6-[1-(4-Cyano-phenyl)-1H-pyrazol-5-yl]-7-methyl-8-(3-trifluoromethyl-phenyl)-[1,2,4]triazolo[1,5-a]pyridin-2-yl]-2-(1,1-dioxothiomorpholin-4-yl)-acetamide], the IC50 was below 20 nM.

With `Cc1c(-c2ccnn2-c2ccc(C#N)cc2)cn2nc(NC(=O)c3ccc(S(C)(=O)=O)cc3)nc2c1-c1cccc(C(F)(F)F)c1` [Example 22, N-[6-[2-(4-Cyano-phenyl)-2H-pyrazol-3-yl]-7-methyl-8-(3-trifluoromethyl-phenyl)-[1,2,4]triazolo[1,5-a]pyridin-2-yl]-4-methanesulfonyl-benzamide], the IC50 was below 20 nM.

On to `Cc1c(-c2ccnn2-c2ccc(C#N)cc2)cn2nc(NCc3ccc(S(C)(=O)=O)cc3)nc2c1-c1cccc(C(F)(F)F)c1` [Example 23, 4-{5-[2-(4-Methanesulfonyl-benzylamino)-7-methyl-8-(3-trifluoromethyl-phenyl)-[1,2,4]triazolo[1,5-a]pyridin-6-yl]-pyrazol-1-yl}-benzonitrile], for which the IC50 is below 20 nM.

With `Cc1c(-c2ccnn2-c2ccc(C#N)cc2)cn2nc(NCC(=O)N(C)C)nc2c1-c1cccc(C(F)(F)F)c1` [Example 24, 2-[6-[2-(4-Cyano-phenyl)-2H-pyrazol-3-yl]-7-methyl-8-(3-trifluoromethyl-phenyl)-[1,2,4]triazolo[1,5-a]pyridin-2-ylamino]-N,N-dimethyl-acetamide], the IC50 was below 20 nM.
